Earlier results in patent publication US20060205727A1, “Combination therapy for endothelial dysfunction, angina and diabetes” (priority 2005, published 2006).

Columns and labels:
[1] = in vivo
[2] = system: plasma C-reactive protein; settings: acute myocardial infarction, streptokinase plus intravenous trimetazidine infusion

In the case of COc1ccccc1OCC(O)CN1CCN(CC(=O)Nc2c(C)cccc2C)CC1 (centres unmarked) [Ranolazine, ranolazine], the QT interval prolongation [1] is given as “causes QT interval prolongation”.

In the case of COc1ccc(CN2CCNCC2)c(OC)c1OC [trimetazidine], the “levels of plasma C-reactive protein” value [2] is given as “reduce the levels of plasma C-reactive protein”.
